± gives the expanded uncertainty stated by the source.
Test: xn = mol fraction of the nth substance listed
Details: 100 kPa, Liquid; for speed of sound: Frequency=3 MHz, Single path-length method; for mass density: Vibrating tube method

CCCCOCCOCCO [3,6-dioxa-1-decanol] + CCCCCCCCCCO
Details | mass density, 293.15 K [kg/m3] | mass density, 298.15 K [kg/m3] | mass density, 303.15 K [kg/m3] | mass density, 308.15 K [kg/m3] | mass density, 313.15 K [kg/m3] | speed of sound, 293.15 K [m/s] | speed of sound, 298.15 K [m/s] | speed of sound, 303.15 K [m/s] | speed of sound, 308.15 K [m/s] | speed of sound, 313.15 K [m/s]
x1 = 0.0523 | 835.331 ± 0.42 | 831.923 ± 0.42 | 828.507 ± 0.42 | 825.069 ± 0.42 | 821.625 ± 0.42 | 1393.8 ± 2.5 | 1376.5 ± 2.5 | 1359.8 ± 2.5 | 1343.3 ± 2.5 | 1326.4 ± 2.5
x1 = 0.102 | 840.692 ± 0.42 | 837.244 ± 0.42 | 833.786 ± 0.42 | 830.318 ± 0.42 | 826.838 ± 0.42 | 1391.2 ± 2.5 | 1374.1 ± 2.5 | 1357.4 ± 2.5 | 1340.8 ± 2.5 | 1324 ± 2.5
x1 = 0.1579 | 846.823 ± 0.42 | 843.333 ± 0.42 | 839.841 ± 0.42 | 836.332 ± 0.42 | 832.81 ± 0.42 | 1388.7 ± 2.5 | 1371.5 ± 2.5 | 1354.9 ± 2.5 | 1338.3 ± 2.5 | 1321.7 ± 2.5
x1 = 0.207 | 852.21 ± 0.42 | 848.697 ± 0.42 | 845.172 ± 0.42 | 841.631 ± 0.42 | 838.082 ± 0.42 | 1386.6 ± 2.5 | 1369.3 ± 2.5 | 1352.7 ± 2.5 | 1336 ± 2.5 | 1319.7 ± 2.5
x1 = 0.2513 | 857.155 ± 0.42 | 853.609 ± 0.42 | 850.057 ± 0.42 | 846.484 ± 0.42 | 842.906 ± 0.42 | 1385 ± 2.5 | 1367.4 ± 2.5 | 1350.8 ± 2.5 | 1334.1 ± 2.5 | 1318 ± 2.5
x1 = 0.3099 | 863.89 ± 0.42 | 860.297 ± 0.42 | 856.695 ± 0.42 | 853.085 ± 0.42 | 849.466 ± 0.42 | 1382.7 ± 2.5 | 1365.1 ± 2.5 | 1348.6 ± 2.5 | 1331.8 ± 2.5 | 1315.9 ± 2.5
x1 = 0.4046 | 875.017 ± 0.41 | 871.358 ± 0.41 | 867.688 ± 0.42 | 864.011 ± 0.42 | 860.317 ± 0.42 | 1379.6 ± 2.5 | 1362.3 ± 2.5 | 1345.7 ± 2.5 | 1328.8 ± 2.5 | 1312.8 ± 2.5
x1 = 0.5087 | 887.59 ± 0.41 | 883.854 ± 0.41 | 880.111 ± 0.41 | 876.354 ± 0.41 | 872.591 ± 0.41 | 1376.9 ± 2.5 | 1359.7 ± 2.5 | 1343.1 ± 2.5 | 1326 ± 2.5 | 1310.2 ± 2.5
x1 = 0.6073 | 899.873 ± 0.41 | 896.063 ± 0.41 | 892.242 ± 0.41 | 888.409 ± 0.41 | 884.574 ± 0.41 | 1374.5 ± 2.5 | 1358.4 ± 2.5 | 1341.8 ± 2.5 | 1324.7 ± 2.5 | 1308.1 ± 2.5
x1 = 0.7051 | 912.356 ± 0.41 | 908.464 ± 0.41 | 904.568 ± 0.41 | 900.658 ± 0.41 | 896.746 ± 0.41 | 1373.9 ± 2.5 | 1357.8 ± 2.5 | 1341.3 ± 2.5 | 1323.9 ± 2.5 | 1307.1 ± 2.5
x1 = 0.7952 | 924.132 ± 0.41 | 920.17 ± 0.41 | 916.202 ± 0.41 | 912.22 ± 0.41 | 908.239 ± 0.41 | 1373.4 ± 2.5 | 1357.9 ± 2.5 | 1341.4 ± 2.5 | 1323.9 ± 2.5 | 1306.6 ± 2.5
x1 = 0.8515 | 931.68 ± 0.41 | 927.667 ± 0.41 | 923.651 ± 0.41 | 919.614 ± 0.41 | 915.585 ± 0.41 | 1373.4 ± 2.5 | 1358.6 ± 2.5 | 1342.2 ± 2.5 | 1324.6 ± 2.5 | 1306.5 ± 2.5
x1 = 0.9006 | 938.376 ± 0.41 | 934.318 ± 0.41 | 930.252 ± 0.41 | 926.171 ± 0.41 | 922.107 ± 0.41 | 1374.5 ± 2.5 | 1359.6 ± 2.5 | 1343.1 ± 2.5 | 1325.4 ± 2.5 | 1307.4 ± 2.5
x1 = 0.9379 | 943.482 ± 0.41 | 939.393 ± 0.41 | 935.294 ± 0.41 | 931.189 ± 0.41 | 927.082 ± 0.41 | 1374.9 ± 2.5 | 1360.6 ± 2.5 | 1344.1 ± 2.5 | 1326.3 ± 2.5 | 1307.7 ± 2.5
x1 = 1 | 952.288 ± 0.41 | 948.1 ± 0.41 | 943.909 ± 0.41 | 939.704 ± 0.41 | 935.503 ± 0.41 | 1378.2 ± 2.5 | 1361.3 ± 2.5 | 1344.5 ± 2.5 | 1326.4 ± 2.5 | 1307.7 ± 2.5

CCCCOCCOCCO [3,6-dioxa-1-decanol] + CCCCCCCCO
Details | mass density, 293.15 K [kg/m3] | mass density, 298.15 K [kg/m3] | mass density, 303.15 K [kg/m3] | mass density, 308.15 K [kg/m3] | mass density, 313.15 K [kg/m3] | speed of sound, 293.15 K [m/s] | speed of sound, 298.15 K [m/s] | speed of sound, 303.15 K [m/s] | speed of sound, 308.15 K [m/s] | speed of sound, 313.15 K [m/s]
x1 = 0.0518 | 832.225 ± 0.41 | 828.746 ± 0.41 | 825.244 ± 0.41 | 821.725 ± 0.41 | 818.179 ± 0.41 | 1364.4 ± 2.4 | 1347.4 ± 2.4 | 1330.7 ± 2.4 | 1313.9 ± 2.4 | 1297.4 ± 2.4
x1 = 0.1019 | 838.886 ± 0.41 | 835.371 ± 0.41 | 831.834 ± 0.41 | 828.281 ± 0.41 | 824.7 ± 0.41 | 1363.4 ± 2.4 | 1346.4 ± 2.4 | 1329.7 ± 2.4 | 1313 ± 2.4 | 1296.4 ± 2.4
x1 = 0.1605 | 846.645 ± 0.41 | 843.087 ± 0.41 | 839.508 ± 0.41 | 835.909 ± 0.41 | 832.289 ± 0.41 | 1362.8 ± 2.4 | 1345.8 ± 2.4 | 1329.1 ± 2.4 | 1312.5 ± 2.4 | 1296 ± 2.4
x1 = 0.1994 | 851.754 ± 0.41 | 848.167 ± 0.41 | 844.558 ± 0.41 | 840.932 ± 0.41 | 837.284 ± 0.41 | 1362.4 ± 2.4 | 1345.5 ± 2.4 | 1328.8 ± 2.4 | 1312.1 ± 2.4 | 1295.6 ± 2.4
x1 = 0.2503 | 858.438 ± 0.41 | 854.812 ± 0.41 | 851.169 ± 0.41 | 847.507 ± 0.41 | 843.826 ± 0.41 | 1362.1 ± 2.4 | 1345.3 ± 2.4 | 1328.5 ± 2.4 | 1311.9 ± 2.4 | 1295.5 ± 2.4
x1 = 0.303 | 865.322 ± 0.41 | 861.66 ± 0.41 | 857.975 ± 0.41 | 854.271 ± 0.41 | 850.554 ± 0.41 | 1362 ± 2.4 | 1345.2 ± 2.4 | 1328.5 ± 2.4 | 1311.9 ± 2.4 | 1295.4 ± 2.4
x1 = 0.4013 | 878.059 ± 0.41 | 874.317 ± 0.41 | 870.565 ± 0.41 | 866.793 ± 0.41 | 863.012 ± 0.41 | 1362.5 ± 2.4 | 1345.7 ± 2.4 | 1329 ± 2.4 | 1312.4 ± 2.4 | 1296 ± 2.4
x1 = 0.4999 | 890.695 ± 0.41 | 886.882 ± 0.41 | 883.058 ± 0.41 | 879.218 ± 0.41 | 875.365 ± 0.41 | 1363.2 ± 2.4 | 1346.4 ± 2.4 | 1329.7 ± 2.4 | 1313.1 ± 2.4 | 1296.7 ± 2.4
x1 = 0.5918 | 902.338 ± 0.41 | 898.456 ± 0.41 | 894.568 ± 0.41 | 890.661 ± 0.41 | 886.747 ± 0.41 | 1364.5 ± 2.4 | 1347.6 ± 2.4 | 1330.9 ± 2.4 | 1314.3 ± 2.4 | 1297.8 ± 2.4
x1 = 0.7043 | 916.351 ± 0.41 | 912.393 ± 0.41 | 908.423 ± 0.41 | 904.44 ± 0.41 | 900.454 ± 0.41 | 1366.7 ± 2.4 | 1349.8 ± 2.4 | 1333.1 ± 2.4 | 1316.5 ± 2.4 | 1299.9 ± 2.4
x1 = 0.8085 | 929.131 ± 0.41 | 925.094 ± 0.41 | 921.053 ± 0.41 | 916.997 ± 0.41 | 912.939 ± 0.41 | 1369.4 ± 2.4 | 1352.4 ± 2.4 | 1335.7 ± 2.4 | 1319 ± 2.4 | 1302.5 ± 2.4
x1 = 0.848 | 933.965 ± 0.41 | 929.901 ± 0.41 | 925.834 ± 0.41 | 921.75 ± 0.41 | 917.662 ± 0.41 | 1370.8 ± 2.4 | 1353.8 ± 2.4 | 1336.8 ± 2.4 | 1320.1 ± 2.4 | 1303.6 ± 2.4
x1 = 0.901 | 940.359 ± 0.41 | 936.257 ± 0.41 | 932.151 ± 0.41 | 928.029 ± 0.41 | 923.906 ± 0.41 | 1373 ± 2.5 | 1356 ± 2.5 | 1339.2 ± 2.5 | 1322.4 ± 2.5 | 1305.8 ± 2.5
x1 = 0.9501 | 946.262 ± 0.41 | 942.124 ± 0.41 | 937.981 ± 0.41 | 933.818 ± 0.41 | 929.657 ± 0.41 | 1374.3 ± 2.5 | 1357.3 ± 2.5 | 1340.4 ± 2.5 | 1323.7 ± 2.5 | 1307 ± 2.5
x1 = 1 | 952.288 ± 0.41 | 948.1 ± 0.41 | 943.909 ± 0.41 | 939.704 ± 0.41 | 935.503 ± 0.41 | 1378.2 ± 2.5 | 1361.3 ± 2.5 | 1344.5 ± 2.5 | 1326.4 ± 2.5 | 1307.7 ± 2.5

Reference: the NIST ThermoML archive (doi:10.1016/j.jct.2018.06.015)
